Assay results reported in patent US20220227737A1, “NOVEL OXALYL PIPERAZINES ACTIVE AGAINST THE HEPATITIS B VIRUS (HBV)” (AiCuris GmbH & Co. KG, priority 2019, published 2022).

What was measured:
[1] = target: T1, C-terminal truncated core protein (HBV core dimer, BODIPY-FL labelled) (UniProt P03146); assay: Biochemical capsid assembly assay (fluorescence quenching)
T1 construct: fused on or other part: One added cysteine at position 150, labelled with BODIPY-FL maleimide; The C-terminal arginine-rich domain is absent
T1 sequence (P03146 whole entry, the tested form may be a part): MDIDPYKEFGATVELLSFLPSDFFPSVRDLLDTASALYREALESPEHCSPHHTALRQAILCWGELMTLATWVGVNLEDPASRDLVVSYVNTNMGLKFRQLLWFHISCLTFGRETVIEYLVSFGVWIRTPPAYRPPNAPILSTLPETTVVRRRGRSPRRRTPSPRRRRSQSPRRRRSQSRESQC
Description: Biochemical Capsid Assembly Assay
The screening for assembly effector activity was done based on a fluorescence quenching assay published by Zlotnick et al. (2007). The C-terminal truncated core protein containing 149 amino acids of the N-terminal assembly domain fused to a unique cysteine residue at position 150 and was expressed in E. coli using the pET expression system (Merck Chemicals, Darmstadt). Purification of core dimer protein was performed using a sequence of size exclusion chromatography steps. In brief, the cell pellet from 1 L BL21 (DE3) Rosetta2 culture expressing the coding sequence of core protein cloned NdeI/XhoI into expression plasmid pET21b was treated for 1 h on ice with a native lysis buffer (Qproteome Bacterial Protein Prep Kit; Qiagen, Hilden). After a centrifugation step the supernatant was precipitated during 2 h stirring on ice with 0.23 g/ml of solid ammonium sulfate. Following further centrifugation the resulting pellet was resolved in buffer A (100 mM Tris, pH 7.5; 100 mM NaCl; 2 mM DTT) and was subsequently loaded onto a buffer A equilibrated CaptoCore 700 column (GE HealthCare, Frankfurt). The column flow through containing the assembled HBV capsid was dialyzed against buffer N (50 mM NaHCO3 pH 9.6; 5 mM DTT) before urea was added to a final concentration of 3M to dissociate the capsid into core dimers for 1.5 h on ice. The protein solution was then loaded onto a 1 L Sephacryl 5300 column. After elution with buffer N core dimer containing fractions were identified by SDS-PAGE and subsequently pooled and dialyzed against 50 mM HEPES pH 7.5; 5 mM DTT. To improve the assembly capacity of the purified core dimers a second round of assembly and disassembly starting with the addition of 5 M NaCl and including the size exclusion chromatography steps described above was performed. From the last chromatography step core dimer containing fractions were pooled and stored in aliquots at concentrations between 1.5 to 2.0 mg/ml at −80° C.
Immediately before labelling the core protein was reduced by adding freshly prepared DTT in a final concentration of 20 mM. After 40 min incubation on ice storage buffer and DTT was removed using a Sephadex G-25 column (GE HealthCare, Frankfurt) and 50 mM HEPES, pH 7.5. For labelling 1.6 mg/ml core protein was incubated at 4° C. and darkness overnight with BODIPY-FL maleimide (Invitrogen, Karlsruhe) in a final concentration of 1 mM. After labelling the free dye was removed by an additional desalting step using a Sephadex G-25 column. Labelled core dimers were stored in aliquots at 4° C. In the dimeric state the fluorescence signal of the labelled core protein is high and is quenched during the assembly of the core dimers to high molecular capsid structures. The screening assay was performed in black 384 well microtiter plates in a total assay volume of 10 μl using 50 mM HEPES pH 7.5 and 1.0 to 2.0 μM labelled core protein. Each screening compound was added in 8 different concentrations using a 0.5 log-unit serial dilution starting at a final concentration of 100 μM, 31.6 μM or 10 μM, In any case the DMSO concentration over the entire microtiter plate was 0.5%. The assembly reaction was started by the injection of NaCl to a final concentration of […] which induces the assembly process to approximately 25% of the maximal quenched signal. […] after starting the reaction the fluorescence signal was measured using a Clariostar plate reader (BMG Labtech, Ortenberg) with an excitation of 477 nm and an emission of 525 nm. As 100% and 0% assembly control HEPES buffer containing 2.5 M and 0 M NaCl was used. Experiments were performed thrice in triplicates. EC50 values were calculated by non-linear regression analysis using the Graph Pad Prism 6 software (GraphPad Software, La Jolla, USA).

HBV = HBV replication assay: HBV DNA from the supernatants of HepAD38 cells; assay type: cell-based; settings: Hepatitis B virus, 144 h, HBV DNA in supernatant at day 6, read-out: Cell Activity
Description: Determination of HBV DNA from the Supernatants of HepAD38 Cells
The anti-HBV activity was analysed in the stable transfected cell line HepAD38, which has been described to secrete high levels of HBV virion particles (Ladner et al., 1997). In brief, HepAD38 cells were cultured at 37° C. at 5% CO2 and 95% humidity in 200 μl maintenance medium, which was Dulbecco's modified Eagle's medium/Nutrient Mixture F-12 (Gibco, Karlsruhe), 10% fetal bovine serum (PAN Biotech Aidenbach) supplemented with 50 μg/ml penicillin/streptomycin (Gibco, Karlsruhe), 2 mM L-glutamine (PAN Biotech, Aidenbach), 400 μg/ml G418 (AppliChem, Darmstadt) and 0.3 μg/ml tetracycline. Cells were subcultured once a week in a 1:5 ratio, but were usually not passaged more than ten times. For the assay 60,000 cells were seeded in maintenance medium without any tetracycline into each well of a 96-well plate and treated with serial half-log dilutions of test compound. To minimize edge effects the outer 36 wells of the plate were not used but were filled with assay medium. On each assay plate six wells for the virus control (untreated HepAD38 cells) and six wells for the cell control (HepAD38 cells treated with 0.3 μg/ml tetracycline) were allocated, respectively. In addition, one plate set with reference inhibitors like BAY 41-4109, entecavir, and lamivudine instead of screening compounds were prepared in each experiment. In general, experiments were performed thrice in triplicates. At day 6 HBV DNA from 100 μl filtrated cell culture supernatant (AcroPrep Advance 96 Filter Plate, […] Supor membran, PALL GmbH, Dreieich) was automatically purified on the MagNa Pure LC instrument using the MagNA Pure 96 DNA and Viral NA Small Volume Kit (Roche Diagnostics, Mannheim) according to the instructions of the manufacturer. EC50 values were calculated from relative copy numbers of HBV DNA In brief, 5 μl of the 100 μl eluate containing HBV DNA were subjected to PCR LC480 Probes Master Kit (Roche) together with 1 μM antisense primer […], 0.5 μM sense primer […], 0.3 μM hybprobes […]-FL and LC640-[…]-PH (TIBMolBiol, Berlin) to a final volume of […]. The PCR was performed on the Light Cycler 480 real time system (Roche Diagnostics, Mannheim) using the following protocol: Pre-incubation for 1 min at 95° C., amplification: 40 cycles×(10 sec at 95° C., 50 sec at 60° C., 1 sec at 70° C.), cooling for 10 sec at 40° C. Viral load was quantitated against known standards using HBV plasmid DNA of pCH-9/3091 (Nassal et al., 1990, Cell 63: 1357-1363) and the LightCycler 480 SW 1.5 software (Roche Diagnostics, Mannheim) and EC50 values were calculated using non-linear regression with GraphPad Prism 6 (GraphPad Software Inc., La Jolla, USA).

[2] = Cell viability assay (AlamarBlue); settings: human, HepAD38 cells

Compound | IC50 [1] | EC50 (HBV) | CC50 at 6 days [2]
O=C(NCC1(O)CC1)C(=O)N1CCN(C(=O)c2cc3c(F)cc(F)cc3[nH]2)CC1 [Example 53, 2-(4-(4,6-difluoro-1H-indole-2-carbonyl)piperazin-1-yl)-N-((1-hydroxycyclopropyl)methyl)-2-oxoacetamide] | < 5 µM | < 1 µM | > 100 µM
O=C(NCCCCO)C(=O)N1CCN(C(=O)c2cc3c(F)cc(F)cc3[nH]2)CC1 [Example 62, 2-(4-(4,6-difluoro-1H-indole-2-carbonyl)piperazin-1-yl)-N-(4-hydroxybutyl)-2-oxoacetamide] | < 5 µM | < 1 µM | > 100 µM
COC1(CNC(=O)C(=O)N2CCN(C(=O)c3cc4c(F)cc(F)cc4[nH]3)CC2)CC1 [Example 65, 2-(4-(4,6-difluoro-1H-indole-2-carbonyl)piperazin-1-yl)-N-((1-methoxycyclopropyl)methyl)-2-oxoacetamide] | < 5 µM | < 1 µM | > 100 µM
COC1(CNC(=O)C(=O)N2CCN(C(=O)c3cc4ccccc4[nH]3)CC2)CC1 [Example 13, 2-(4-(1H-indole-2-carbonyl)piperazin-1-yl)-N-((1-methoxycyclopropyl)methyl)-2-oxoacetamide] | 5 to 10 µM | < 1 µM | > 100 µM
O=C(NCCCCCCO)C(=O)N1CCN(C(=O)c2cc3c(F)cc(F)cc3[nH]2)CC1 [Example 56, 2-(4-(4,6-difluoro-1H-indole-2-carbonyl)piperazin-1-yl)-N-(6-hydroxyhexyl)-2-oxoacetamide] | < 5 µM | 1 to 10 µM | > 100 µM
CCCCNC(=O)C(=O)N1CCCN(C(=O)c2cc3ccccc3[nH]2)CC1 [Example 8, N-butyl-2-[4-(1H-indole-2-carbonyl)-1,4-diazepan-1-yl]-2-oxoacetamide] | < 100 µM | < 1 µM | > 100 µM
O=C(NCC1CCOC1)C(=O)N1CCN(C(=O)c2cc3ccccc3[nH]2)CC1 (stereo not drawn) [Example 4, 2-(4-(1H-indole-2-carbonyl)piperazin-1-yl)-2-oxo-N-((tetrahydrofuran-3-yl)methyl)acetamide] | < 100 µM | 1 to 10 µM | > 100 µM
O=C(NC1CCOC1)C(=O)N1CCN(C(=O)c2cc3ccccc3[nH]2)CC1 (stereo not drawn) [Example 35, 2-(4-(1H-indole-2-carbonyl)piperazin-1-yl)-2-oxo-N-(tetrahydrofuran-3-yl)acetamide] | 5 to 10 µM | < 1 µM | > 100 µM
O=C(NCc1ccoc1)C(=O)N1CCN(C(=O)c2cc3ccccc3[nH]2)CC1 [Example 10, 2-(4-(1H-indole-2-carbonyl)piperazin-1-yl)-N-(furan-3-ylmethyl)-2-oxoacetamide] | < 5 µM | < 1 µM | > 100 µM
O=C(NC1CCCC1)C(=O)N1CCN(C(=O)c2cc3cccc(Br)c3[nH]2)CC1 [Example 7, 2-[4-(7-bromo-1H-indole-2-carbonyl)piperazin-1-yl]-N-cyclopentyl-2-oxoacetamide] | 5 to 10 µM | < 1 µM | > 100 µM
CCCCNC(=O)C(=O)N1CCN(C(=O)c2cc3ccc(F)cc3[nH]2)CC1 [Example 23, N-butyl-2-(4-(6-fluoro-1H-indole-2-carbonyl)piperazin-1-yl)-2-oxoacetamide] | < 5 µM | < 1 µM | > 100 µM
O=C(NCC1(CO)CC1)C(=O)N1CCN(C(=O)c2cc3c(F)cc(F)cc3[nH]2)CC1 [Example 55, 2-(4-(4,6-difluoro-1H-indole-2-carbonyl)piperazin-1-yl)-N-((1-(hydroxymethyl)cyclopropyl)methyl)-2-oxoacetamide] | < 5 µM | < 1 µM | > 100 µM
O=C(NCCO)C(=O)N1CCN(C(=O)c2cc3ccccc3[nH]2)CC1 [Example 3, 2-(4-(1H-indole-2-carbonyl)piperazin-1-yl)-N-(2-hydroxyethyl)-2-oxoacetamide] | < 100 µM | 1 to 10 µM | > 100 µM
CCCCNC(=O)C(=O)N1CCN(C(=O)c2cc3cccc(F)c3[nH]2)CC1 [Example 25, N-butyl-2-(4-(7-fluoro-1H-indole-2-carbonyl)piperazin-1-yl)-2-oxoacetamide] | < 5 µM | < 1 µM | > 100 µM
CC(C)(C)NC(=O)C(=O)N1CCN(C(=O)c2cc3ccccc3[nH]2)CC1 [Example 52, N-tert-butyl-2-[4-(1H-indole-2-carbonyl)piperazin-1-yl]-2-oxoacetamide] | < 5 µM | < 1 µM | > 100 µM
O=C(NCC1(O)CCC1)C(=O)N1CCN(C(=O)c2cc3ccccc3[nH]2)CC1 [Example 30, 2-(4-(1H-indole-2-carbonyl)piperazin-1-yl)-N-((1-hydroxycyclobutyl)methyl)-2-oxoacetamide] | < 5 µM | < 1 µM | > 100 µM
O=C(NCCCO)C(=O)N1CCN(C(=O)c2cc3c(F)cc(F)cc3[nH]2)CC1 [Example 54, 2-(4-(4,6-difluoro-1H-indole-2-carbonyl)piperazin-1-yl)-N-(3-hydroxypropyl)-2-oxoacetamide] | < 5 µM | < 1 µM | > 100 µM
CCCCCCNC(=O)C(=O)N1CCN(C(=O)c2cc3ccccc3[nH]2)CC1 [Example 11, 2-(4-(1H-indole-2-carbonyl)piperazin-1-yl)-N-hexyl-2-oxoacetamide] | < 5 µM | 1 to 10 µM | > 100 µM
